Legend:
[1] = system: primary human adult dermal fibroblasts; assay: Transfection of primary human adult dermal fibroblasts with GFP-encoding RNA; assay type: cell-based; settings: images 16 hours following transfection; both lipid-to-RNA mass ratios tested
[2] = Zeta potential of DLinDHS/RNA complexes versus buffer pH; assay type: physicochemical
Rat = assay: mRNA delivery in rat by intradermal injection, anti-GFP histology; assay type: in vivo; settings: GFP mRNA complexed at 2.5 μg/μg, necropsy 48 hours
[3] = system: human peripheral blood mononuclear cells (hPBMCs); assay: Transfection of human peripheral blood mononuclear cells with GFP-encoding RNA complexed with lipid; assay type: cell-based; settings: images 16 hours following transfection; both lipid-to-RNA mass ratios tested
human subject = assay: In vivo mRNA delivery to a human subject by intradermal injection, confocal fluorescence microscopy of biopsy; settings: human male, ventral forearm, 400 ng RNA in 20 μL, 2.5 μg/μg, biopsy after 48 hours
[4] = system: primary human epidermal keratinocytes; assay: Transfection of primary human epidermal keratinocytes with GFP-encoding RNA complexed with lipid, in 100% FBS; assay type: cell-based
[5] = system: human epidermal keratinocytes; assay: GFP mRNA delivery to keratinocytes in serum-free medium or 50% FBS; assay type: cell-based; settings: 20,000 keratinocytes, 0% FBS or 50% FBS, images 16 hours following transfection; DLinDHS at 2.5 μg/μg lipid-to-RNA; LNPs 300 ng final mRNA
[6] = Particle size of DLinDHS/RNA complexes by dynamic light scattering; assay type: physicochemical; settings: DLinDHS/RNA complexes formed in aqueous mRNA solution with varied sodium chloride concentration
[7] = system: confluent layer of primary human epidermal keratinocytes; assay: Transfection of a confluent layer of primary human epidermal keratinocytes with GFP-encoding RNA; assay type: cell-based; settings: images 24 hours following transfection; both lipid-to-RNA mass ratios tested
[8] = system: primary human epidermal keratinocytes; assay: Gene editing of keratinocytes with RNA encoding gene-editing proteins, T7E1 endonuclease digestion; assay type: cell-based; settings: RNA encoding gene-editing proteins complexed with lipid
RNase A = assay: Protection of mRNA from RNase A degradation, GFP readout in keratinocytes; assay type: cell-based; settings: DLinDHS/mRNA complexes treated with RNase A after complexation, 2.5 μg/μg, 20,000 keratinocytes in serum-free medium
[9] = system: primary human dermal fibroblasts; assay: Time-lapse fluorescence imaging of labeled RNA / labeled lipid uptake in dermal fibroblasts; assay type: cell-based

Compound: CCCCC/C=C\C/C=C\CCCCCCCCN(CCCCN(CCCCCCCC/C=C\C/C=C\CCCCC)CC(O)CN)CC(O)CN (centres unmarked) [DHDLinS, N^1,N^4-dilinoleyl-N^1,N^4-di-(2-hydroxy-3-aminopropyl)-diaminobutane]
- transfection of adult dermal fibroblasts (GFP fluorescence) [1]: effectively transfected
- dependence of zeta potential on pH ([2]; DLinDHS/RNA lipoplexes diluted into 20 mM citrate pH 3.0-6.0 or 20 mM phosphate pH 7.4): pH-dependent
- zeta potential ([2]; DLinDHS/RNA lipoplexes, 2.5 μg/μg, 20 mM phosphate, pH 7.4): −22.1 mV
- reporter protein (GFP) expression in tissue (Rat): localized expression in the dermal layer
- transfection of hPBMCs (GFP fluorescence) [3]: effectively transfected hPBMCs at both lipid-to-RNA mass ratios tested
- reporter protein (RFP) expression in skin (human subject): RFP-positive cells that have a morphology consistent with that of fibroblasts
- transfection of keratinocytes (GFP fluorescence) ([4]; 400 ng per well GFP RNA, complexation in DMEM, transfection in 100% FBS, images 8 hours after transfection, lipid without acetone purification): transfected with high efficiency
- lipid-to-RNA mass ratios at which minimal increase in fluorescence signal was observed ([4]; DHDLinS purified by extraction with acetone, keratinocytes, images 16 hours following transfection): greater than 2 μg/μg
- time after transfection at which a fluorescent signal was detected ([4]; experiment of FIG. 1, keratinocytes, 100% FBS): one
- mRNA delivery in serum (GFP fluorescence) [5]: efficiently delivers mRNA in 50% serum
- particle size of lipoplex (Z-average, DLS) [6]: ionic-strength dependent
- transfection of confluent keratinocytes (GFP fluorescence) [7]: effectively transfected
- gene-editing efficiency [8]: gene edited at high efficiency
- protection of complexed RNA from RNase A degradation (GFP expression) (RNase A): protected from degradation
- time after transfection at which protein expression begins ([9]; 100 ng GFP mRNA, 2.5 μg/μg, 20,000 fibroblasts in 10% FBS): ≤ 2.5 h
- time to detection of mRNA in cytoplasm after contact with lipoplexes ([9]; 100 ng GFP mRNA, 20% Cy5-labeled, 2.5 μg/μg, 20,000 fibroblasts in 10% FBS): ≤ 50 min
- contact of labeled lipid with cells ([9]; BODIPY-labeled DLinDHS (10:1), 200 ng GFP mRNA, fibroblasts): contacts cells within minutes after transfection
